In US8541407B2 (ArQule, Inc., priority 2010, dated 2013):

Target: AKT1 (Homo sapiens (Human), UniProt P31749)
Test: Inactive Akt Alpha Screen Assay
Conditions: non *labeled: Akt Alpha Screen assay; read-out: AKT1 biochemical assay, IC50
In short: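 AKT1 activated in situ by PDK1, MAPKAPK2, lipid vesicles and ATP, then phosphorylating biotinylated crosstide for 30 min at room temperature. Stopped with 10 mM EDTA; phosphopeptide detected by AlphaScreen using phospho-AKT substrate antibody (1:350), Protein A acceptor and streptavidin donor beads, 90 min dark, ex 640/em 570 nm.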

AKT1, sequence (P31749 whole entry): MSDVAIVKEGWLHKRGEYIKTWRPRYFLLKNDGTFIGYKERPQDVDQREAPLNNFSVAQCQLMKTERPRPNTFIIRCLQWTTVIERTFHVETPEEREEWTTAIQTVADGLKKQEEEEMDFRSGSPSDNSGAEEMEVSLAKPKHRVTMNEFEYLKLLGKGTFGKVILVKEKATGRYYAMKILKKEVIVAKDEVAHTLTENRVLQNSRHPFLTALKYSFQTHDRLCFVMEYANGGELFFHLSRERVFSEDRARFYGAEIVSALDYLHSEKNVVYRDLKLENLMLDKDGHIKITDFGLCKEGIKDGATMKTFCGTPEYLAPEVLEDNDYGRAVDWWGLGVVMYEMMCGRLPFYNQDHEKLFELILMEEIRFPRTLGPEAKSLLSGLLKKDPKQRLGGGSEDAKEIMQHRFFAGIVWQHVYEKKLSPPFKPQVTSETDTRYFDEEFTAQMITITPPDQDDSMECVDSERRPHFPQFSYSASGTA

SMILES	IC50 [µM]
c1ccc(OC2CCN(Cc3ccc(-c4nnc5n4-c4cccnc4Nc4ccccc4-5)cc3)CC2)cc1 [Example 188, 3-(4-((4-phenoxypiperidin-1-yl)methyl)phenyl)-9H-benzo[f]pyrido[2,3-b][1,2,4]triazolo[4,3-d][1,4]diazepine]	0.83
Cc1noc(C2CCCN(Cc3ccc(-c4nnc5n4-c4cccnc4Nc4ccccc4-5)cc3)C2)n1 (stereo not drawn) [Example 190, 5-(1-(4-(9H-benzo[f]pyrido[2,3-b][1,2,4]triazolo[4,3-d][1,4]diazepin-3-yl)benzyl)piperidin-3-yl)-3-methyl-1,2,4-oxadiazole]	0.41
O=S(=O)(NC1(c2ccc(-c3nnc4n3-c3cccnc3Nc3ccccc3-4)cc2)CCC1)c1ccc(F)cc1 [Example 197, N-(1-(4-(9H-benzo[f]pyrido[2,3-b][1,2,4]triazolo[4,3-d][1,4]diazepin-3-yl)phenyl)cyclobutyl)-4-fluorobenzenesulfonamide]	0.58
O=S(=O)(NC1(c2ccc(-c3nnc4n3-c3cccnc3Nc3ccccc3-4)cc2)CCC1)c1cccc(F)c1 [Example 204, N-(1-(4-(9H-benzo[f]pyrido[2,3-b][1,2,4]triazolo[4,3-d][1,4]diazepin-3-yl)phenyl)cyclobutyl)-3-fluorobenzenesulfonamide]	0.76
Cn1ccc(S(=O)(=O)NC2(c3ccc(-c4nnc5n4-c4cccnc4Nc4ccccc4-5)cc3)CCC2)n1 [Example 205, N-(1-(4-(9H-benzo[f]pyrido[2,3-b][1,2,4]triazolo[4,3-d][1,4]diazepin-3-yl)phenyl)cyclobutyl)-1-methyl-1H-pyrazole-3-sulfonamide]	0.64
Cc1cc(C(=O)NC2(c3ccc(-c4nnc5n4-c4cccnc4Nc4ccccc4-5)cc3)CCC2)no1 [Example 206, N-(1-(4-(9H-benzo[f]pyrido[2,3-b][1,2,4]triazolo[4,3-d][1,4]diazepin-3-yl)phenyl)cyclobutyl)-5-methylisoxazole-3-carboxamide]	0.24
Cc1ccc2c(c1)-c1nnc(-c3ccc(C4(N)CCC4)cc3)n1-c1cccnc1N2 [Example 216, 1-(4-(12-methyl-9H-benzo[f]pyrido[2,3-b][1,2,4]triazolo[4,3-d][1,4]diazepin-3-yl)phenyl)cyclobutanamine]	0.96
NC1(c2ccc(-c3nnc4n3-c3cccnc3Nc3ccccc3-4)cc2)CCCCC1 [Example 217, 1-(4-(9H-benzo[f]pyrido[2,3-b][1,2,4]triazolo[4,3-d][1,4]diazepin-3-yl)phenyl)cyclohexanamine]	0.5
Cc1cccc2c1Nc1ncccc1-n1c(-c3ccc(C4(N)CCC4)cc3)nnc1-2 [Example 218, 1-(4-(10-methyl-9H-benzo[f]pyrido[2,3-b][1,2,4]triazolo[4,3-d][1,4]diazepin-3-yl)phenyl)cyclobutanamine]	1.4
CC(C)(C)OC(=O)NC1(c2ccc(-c3nnc4n3-c3cccnc3Nc3ccccc3-4)cc2)CC1 [Example 221, tert-butyl (1-(4-(9H-benzo[f]pyrido[2,3-b][1,2,4]triazolo[4,3-d][1,4]diazepin-3-yl)phenyl)cyclopropyl)carbamate]	1.4

Next, values leading:

IC50 [µM]	SMILES
0.7	COc1ccccc1NC(=O)NC1CCN(Cc2ccc(-c3nnc4n3-c3cccnc3Nc3ccccc3-4)cc2)CC1 [Example 183, 1-(1-(4-(9H-benzo[f]pyrido[2,3-b][1,2,4]triazolo[4,3-d][1,4]diazepin-3-yl)benzyl)piperidin-4-yl)-3-(2-methoxyphenyl)urea]
0.84	COc1ccc(NC(=O)NC2CCN(Cc3ccc(-c4nnc5n4-c4cccnc4Nc4ccccc4-5)cc3)CC2)c(C)c1 [Example 184, 1-(1-(4-(9H-benzo[f]pyrido[2,3-b][1,2,4]triazolo[4,3-d][1,4]diazepin-3-yl)benzyl)piperidin-4-yl)-3-(4-methoxy-2-methylphenyl)urea]
2.1	Cc1cc(COCc2ccc(-c3nnc4n3-c3cccnc3Nc3ccccc3-4)cc2)no1 [Example 185, 3-(((4-(9H-benzo[f]pyrido[2,3-b][1,2,4]triazolo[4,3-d][1,4]diazepin-3-yl)benzyl)oxy)methyl)-5-methylisoxazole]
0.92	c1ccc(OC2CCCN(Cc3ccc(-c4nnc5n4-c4cccnc4Nc4ccccc4-5)cc3)C2)cc1 (stereo not drawn) [Example 189, 3-(4-((3-phenoxypiperidin-1-yl)methyl)phenyl)-9H-benzo[f]pyrido[2,3-b][1,2,4]triazolo[4,3-d][1,4]diazepine]
0.048	O=c1[nH]c(-c2ccccc2)cn1C1CCN(Cc2ccc(-c3nnc4n3-c3cccnc3Nc3ccccc3-4)cc2)CC1 [Example 191, 1-(1-(4-(9H-benzo[f]pyrido[2,3-b][1,2,4]triazolo[4,3-d][1,4]diazepin-3-yl)benzyl)piperidin-4-yl)-4-phenyl-1H-imidazol-2(3H)-one]
0.34	CC(C)(N)c1ccc(-c2nnc3n2-c2cccnc2Nc2ccccc2-3)cc1 [Example 192, 2-(4-(9H-benzo[f]pyrido[2,3-b][1,2,4]triazolo[4,3-d][1,4]diazepin-3-yl)phenyl)propan-2-amine]
1.2	O=C(Nc1ccccc1)NC1(c2ccc(-c3nnc4n3-c3cccnc3Nc3ccccc3-4)cc2)CCC1 [Example 194, 1-(1-(4-(9H-benzo[f]pyrido[2,3-b][1,2,4]triazolo[4,3-d][1,4]diazepin-3-yl)phenyl)cyclobutyl)-3-phenylurea]
1.1	c1ccc2c(c1)Nc1ncccc1-n1c(-c3ccc(C4CCCN4)cc3)nnc1-2 (stereo not drawn) [Example 196, 3-(4-(pyrrolidin-2-yl)phenyl)-9H-benzo[f]pyrido[2,3-b][1,2,4]triazolo[4,3-d][1,4]diazepine]
0.46	Cc1cccc(S(=O)(=O)NC2(c3ccc(-c4nnc5n4-c4cccnc4Nc4ccccc4-5)cc3)CCC2)c1 [Example 199, N-(1-(4-(9H-benzo[f]pyrido[2,3-b][1,2,4]triazolo[4,3-d][1,4]diazepin-3-yl)phenyl)cyclobutyl)-3-methylbenzenesulfonamide]
0.61	O=C(NC1(c2ccc(-c3nnc4n3-c3cccnc3Nc3ccccc3-4)cc2)CCC1)c1ccc(F)cc1 [Example 200, N-(1-(4-(9H-benzo[f]pyrido[2,3-b][1,2,4]triazolo[4,3-d][1,4]diazepin-3-yl)phenyl)cyclobutyl)-4-fluorobenzamide]
1.9	CC(C)(C)OC(=O)NC1CCN(Cc2ccc(-c3nnc4n3-c3cccnc3Nc3ccccc3-4)cc2)CC1 [Example 201, tert-butyl (1-(4-(9H-benzo[f]pyrido[2,3-b][1,2,4]triazolo[4,3-d][1,4]diazepin-3-yl)benzyl)piperidin-4-yl)carbamate]
0.66	c1ccc(-c2nnc(C3CCN(Cc4ccc(-c5nnc6n5-c5cccnc5Nc5ccccc5-6)cc4)CC3)o2)cc1 [Example 207, 2-(1-(4-(9H-benzo[f]pyrido[2,3-b][1,2,4]triazolo[4,3-d][1,4]diazepin-3-yl)benzyl)piperidin-4-yl)-5-phenyl-1,3,4-oxadiazole]
5	NC1(c2ccc(-c3nnc4n3-c3cnccc3Nc3ccccc3-4)cc2)CCC1 [Example 220, 1-(4-(9H-benzo[f]pyrido[4,3-b][1,2,4]triazolo[4,3-d][1,4]diazepin-3-yl)phenyl)cyclobutanamine]
0.14	NC1(c2ccc(-c3nnc4n3-c3cccnc3Nc3ccccc3-4)cc2)CC1 [Example 222, 1-(4-(9H-benzo[f]pyrido[2,3-b][1,2,4]triazolo[4,3-d][1,4]diazepin-3-yl)phenyl)cyclopropanamine]
